Laboratory results: the RepoRT retention time repository (doi:10.1016/j.chroma.2019.01.023)

Assay: HILIC, Waters ACQUITY UPLC BEH Amide, 150 × 2.1 mm, 1.7 µm, 40 °C, 0.5 mL/min, estimated dead time 0.66 min; A: 5% water + 95% acetonitrile; B: 70% water + 30% acetonitrile + 10 mM ammonium formate, pH 6.5; gradient (min/%B) 0/0 2/0 20/70 23/70 24/0 31/0
Conditions: stereoisomer not certain

LC retention time	Compound
14 min	NCCCCN=C(N)N.O=S(=O)(O)O [AGMATINE SULFATE]
10.4 min	NCCC(=O)O [BETA-ALANINE]
0.84 min	CC1C(=O)Nc2ccccc21 (centres undefined) [3-METHYL-2-OXINDOLE]
1.56 min	O=c1cccc[nH]1 [2-HYDROXYPYRIDINE]
1.17 min	NC(N)=S [THIOUREA]
5.66 min	Cn1cnc(=N)c2[nH]cnc21 [3-METHYLADENINE]
1.45 min	O=C1CCNC(=O)N1 [DIHYDROURACIL]
8.78 min	OCCNCCO [DIETHANOLAMINE]
8.78 min	CC(=O)C(C)O (centres undefined) [ACETOIN]
8.25 min	CCCCC(=O)[O-] [PENTANOATE]
10.5 min	CC(O)C(N)C(=O)O (centres undefined) [THREONINE]
9.76 min	C[C@H](N)C(=O)O [L-ALANINE]
13 min	CN(C)C(N)=NCCCC(N)C(=O)O (centres undefined) [N,N-DIMETHYLARGININE]
1.63 min	COC(=O)CC(C)=O [METHYL ACETOACETATE]
7.09 min	NCc1ccccc1 [BENZYLAMINE]
3.99 min	OCC(O)C(O)CO (centres undefined) [ERYTHRITOL]
1.29 min	CCCC(=O)[O-] [BUTANOATE]
14.4 min	NCCC[C@@H](N)C(=O)O [D-ORNITHINE]
5.15 min	Nc1ccnc(=O)[nH]1 [CYTOSINE]
4.45 min	CCCCCCCCCCCCCCCC(=O)OCC(COP(=O)(O)OCCN)OC(=O)CCCCCCCCCCCCCCC (centres undefined) [DIPALMITOYL-PHOSPHOETHANOLAMINE]
1.93 min	NC(CC(=O)O)C(=O)O (centres undefined) [ASPARTATE]

LC retention time	Compound
0.94 min	NCCCCN [PUTRESCINE]
0.99 min	CC12CCC(O)CC1CCC1C2C(O)CC2(C)C1CCC2(O)C(=O)CO (centres undefined)
8.45 min	CC(=O)NCCCCN [N-ACETYLPUTRESCINE]
10.2 min	NCCCC(=O)O [GAMMA-AMINOBUTYRATE]
9.54 min	CNCC(=O)O [SARCOSINE]
7.51 min	C[N+](C)(C)CCO [CHOLINE]
8.79 min	CC(C)C(=O)O [ISOBUTYRATE]
0.91 min	c1ccc2ncccc2c1 [QUINOLINE]
10.4 min	NCCCCC(=O)O [5-AMINOPENTANOATE]
1.38 min	NC(=O)c1cccnc1 [NICOTINAMIDE]
2.48 min	COC(=O)CCCC(=O)O [MONOMETHYLGLUTARATE]
2.1 min	NC(=O)C=CC(=O)O [MALEAMATE]
10.9 min	OCC1OC(OC2C(CO)OC(O)C(O)C2O)C(O)C(O)C1O (centres undefined) [CELLOBIOSE]
9.82 min	NC(CO)Cc1cnc[nH]1 (centres undefined) [HISTIDINOL]
1.37 min	CC(O)CC(=O)[O-] (centres undefined) [3-HYDROXYBUTANOATE]
2.9 min	CN1CCCC1c1cccnc1 (centres undefined) [NICOTINE]
6.24 min	CCCCCCCCCCCC(=O)OC(CC(=O)[O-])C[N+](C)(C)C (centres undefined) [LAUROYLCARNITINE]
5.9 min	CCCCCCCCCCCCCCCC(=O)OC(CC(=O)[O-])C[N+](C)(C)C (centres undefined) [PALMITOYLCARNITINE]
7.63 min	C[N+](C)(C)CC(=O)[O-] [BETAINE]
10.8 min	C[N+](C)(C)CCCC(=O)[O-] [DEOXYCARNITINE]
0.91 min	CCCCCC(=O)[O-] [HEXANOATE]

Compound	LC retention time
Nc1ccccc1C(=O)[O-] [ANTHRANILATE]	1.11 min
CNCCc1c[nH]c2ccccc12 [N-METHYLTRYPTAMINE]	6.64 min
NCC(O)c1ccccc1 (centres undefined) [PHENYLETHANOLAMINE]	7.74 min
CN(C)c1ccc(N)cc1 [N,N-DIMETHYL-1,4-PHENYLENEDIAMINE]	0.91 min
NC1CCSC1=O (centres undefined) [HOMOCYSTEINE THIOLACTONE]	1.05 min
NCCc1ccccc1 [PHENETHYLAMINE]	7 min
CN=C(N)N [METHYLGUANIDINE]	8 min
